pEC50, pIC50: −log10 of the molar value. Several values for one entry are separate records, joined by “and”; a condition that tells them apart may be missing. Equal entries are not always repeated. Where two headings read alike, the source gives them in different places.
Experiments:
[1] = Plasma PK in rats after a single IV bolus dose; type: in vivo, rat; conditions: for AUC: read-out: AUC0-n
rats = assay: Respiratory function in rats, single IV bolus, head-out plethysmograph; type: in vivo, rat; conditions: any dose
[2] = Pilot ocular tolerance of topically administered Compound 12 in dogs-PK; type: in vivo, dog; conditions: dog, vitreous fluid, topical; TID for three days with 3.5 mg/eye (10%); ranged from BLOQ; read-out: levels in the vitreous fluid
dogs = assay: as above; type: in vivo, dog; conditions: up to 10% strength at 3 doses/day
[3] = test system: attachment of Jurkat cells to ICAM-1; assay: T-cell adhesion assay using Jurkat cells; type: cell-based, human
Description: A reported LFA-1 antagonist was used as the positive control.
Jurkat cells were labeled with an 8 μM solution of BCECF-AM (2′,7′-bis-(2-carboxyethyl)-5-(and -6)-carboxyfluorescein) in growth media at room temperature for 15 minutes. […] Non-adherent cells were removed by washing and centrifugation at 100 g for 1 minute. Adherent cells were determined as adherent fluorescent units on a fluorescent plate reader.

Pilot rat dermal study = type: in vivo; conditions: 1% lotion, ointment, gel, DMSO; TID 7 days, 10 mg/cm^2 on about 6 cm^2
Description: The safety and tolerability of prototypical dermal formulations (1% lotion, ointment, and gel) were assessed on rats given TID for seven consecutive days—approximately 6 cm^2 with 10 mg/cm^2.

[4] = Phase 1 clinical trial, tear PK; type: in vivo, human
Text: A 48-hour post-dose sample was obtained following Day 1, 14, and 27.

rabbits [5] = assay: 13-week ocular toxicity study in rabbits with 4-week recovery (with TK); conditions: (3%)
[6] = test system: SEB stimulated IL-2 release in whole human blood; assay: cells; type: cell-based; conditions: read-out: IC50 inhibition of SEB stimulated IL-2 release in whole human blood
[7] = test system: Keratoconjunctivitis Sicca (KCS); assay: Canine keratoconjunctivitis sicca (KCS) study, Schirmer tear test and conjunctival biopsy; type: in vivo, dog; conditions: for Schirmer Tear Test Results (OD), Mean: Dog #1 not included; for Schirmer Tear Test Results (OS), Mean: Dog #7 not included; for Schirmer Tear Test Results (OS), individual dogs: left eye; for Schirmer Tear Test Results (OD), individual dogs: right eye
Text: If dogs had been treated with topical CsA or tacrolimus in the previous six months, they were not enrolled. […] Animals were subjected to an ocular examination once during the initial visit and during five visits over sixteen weeks of the study (Weeks, 2, 4, 8, 12 and 16). The last OE was approximately four weeks after the last dose of Compound 12 and after one month of CsA treatment. The adnexa and anterior portions of both eyes were examined using an indirect opthalmoscope. The eyes were dilated with a mydriatic when applicable, to allow evaluation of the lens and fundus, including the retina. An evaluation using a modified McDonald-Shaddock scoring system was performed in conjunction with the slitlamp ocular examinations at each interval. […] One strip of STT paper was used for each eye for each interval. […] The length, in mm, of wetting below the notch of the paper was recorded. Conjunctival biopsies were taken at the initial (pretreatment) visit and the Week 12 visit. The second biopsy was taken more lateral (approx. 1 mm) to the initial biopsy. Following appropriate preparation a small conjunctival biopsy was taken from the ventral fornix of each eye.

[8] = test system: human mononuclear cells (PBMC) stimulated with staphylococcal enterotoxin B (SEB); assay: cells; type: cell-based
rabbits [9] = assay: Single dose ocular tolerance in rabbits; type: in vivo, rabbit; conditions: (10%)
in vivo = conditions: dog, iv
[10] = 13-week IV toxicity study in rats with 4-week recovery (with plasma exposure); conditions: rat; for AUC: AUC0-n
[11] = 30.0 mg/kg single IV bolus, from rat safety pharmacology study
[12] = rat, 10.0 mg/kg single IV bolus
[13] = Week 1, 1% solution (Formulation 15) 0.35 mg/eye TID, one grid row per dog
[14] = Week 16, Compound 12 stopped at week 12, then 4 weeks CsA 0.2% ointment TID
[15] = Weeks 1-12 of Compound 12 administration
[16] = 3 mg/kg, 3 mg/kg daily IV bolus, Day 1
[17] = 3 mg/kg, 3 mg/kg daily IV bolus, Week 13
[18] = 10 mg/kg, 10 mg/kg daily IV bolus, Day 1
[19] = 10 mg/kg, 10 mg/kg daily IV bolus, Week 13
[20] = 30 mg/kg, 30 mg/kg daily IV bolus, Day 1
[21] = 30 mg/kg, 30 mg/kg daily IV bolus, Week 13

SMILES: CS(=O)(=O)c1cccc(C[C@H](NC(=O)c2c(Cl)cc3c(c2Cl)CCN(C(=O)c2ccc4ccoc4c2)C3)C(=O)O)c1 [Compound 12]
- Cmax [1, 11]: 5120 ng/mL
- AUC [1, 11]: 2350 ng·h/mL
- Cmax [1, 12]: 1060 ng/mL
- MRT [1, 12]: 0.92 h
- clearance [1, 12]: 173 mL/min/kg
- half-life [1, 12]: 3.76 h
- AUC [1, 12]: 728 ng·h/mL
- Vd ([1]; rat, 10.0 mg/kg single IV bolus, read-out: Vss): 9.56 L/kg
- respiratory function (tidal volume, respiration rate, minute volume) (rats): No adverse changes
- concentration at 3 days [2]: ≤ 18 ng/mL
- ocular safety and tolerability (dogs): safe and well tolerated
- Jurkat cell attachment to ICAM-1 ([3]; 30 min preincubation, 1 h at 37° C.): inhibition of Jurkat cell attachment with increasing dose
- dose response curve and IC50, Jurkat cell attachment ([3]; vs positive control): comparable to that of the known direct competitive LFA-1 antagonist
- serum level after dermal dosing (Pilot rat dermal study): detectable in serum
- accumulation in tear with multiple ocular dose administration ([4]; BID and TID): no obvious evidence of accumulation
- tear AUC and Cmax values ([4]; dosing day 1, maintained throughout the trial): Dose related increases
- NOAEL (rabbits [5]): 1.05 mg/eye/3× per day
- pIC50 [6]: 7.16
- Schirmer Tear Test Results (OD), Mean ([7]; Week 1): 5.5 mm
- Schirmer Tear Test Results (OS), Mean ([7]; Week 1): 4.2 mm
- Schirmer Tear Test Results (OS), individual dogs [7, 13]: 9 mm (2×) and 18 mm and 0 mm (3×) and 7 mm
- Schirmer Tear Test Results (OD), individual dogs [7, 13]: 8 mm (2×) and 6 mm (2×) and 15 mm and 0 mm and 5 mm
- Schirmer Tear Test Results (OD), Mean ([7]; Week 2): 7.8 mm
- Schirmer Tear Test Results (OS), Mean ([7]; Week 2): 4.8 mm
- Schirmer Tear Test Results (OS), individual dogs ([7]; Week 2, 1% solution TID): 4 mm and 0 mm (2×) and 14 mm and 3 mm and 8 mm
- Schirmer Tear Test Results (OD), individual dogs ([7]; Week 2, 1% solution TID): 10 mm and 2 mm (2×) and 18 mm and 11 mm (3×)
- Schirmer Tear Test Results (OD), Mean ([7]; Week 4): 7.0 mm
- Schirmer Tear Test Results (OS), Mean ([7]; Week 4): 6.7 mm
- Schirmer Tear Test Results (OS), individual dogs ([7]; Week 4, 1% solution TID): 14 mm (2×) and 0 mm (2×) and 7 mm and 5 mm
- Schirmer Tear Test Results (OD), individual dogs ([7]; Week 4, 1% solution TID): 15 mm and 2 mm and 12 mm and 0 mm and 5 mm and 10 mm (2×)
- Schirmer Tear Test Results (OD), Mean ([7]; Week 8): 8.5 mm
- Schirmer Tear Test Results (OS), Mean ([7]; Week 8): 6.5 mm
- Schirmer Tear Test Results (OS), individual dogs ([7]; Week 8, 1% solution TID): 8 mm (2×) and 19 mm and 0 mm and 2 mm and 17 mm and 6 mm
- Schirmer Tear Test Results (OD), individual dogs ([7]; Week 8, 1% solution TID): 17 mm and 1 mm and 16 mm and 8 mm and 7 mm (2×) and 11 mm
- Schirmer Tear Test Results (OD), Mean ([7]; Week 12): 8.8 mm
- Schirmer Tear Test Results (OS), Mean ([7]; Week 12): 8.7 mm
- Schirmer Tear Test Results (OS), individual dogs ([7]; Week 12, 1% solution TID): 8 mm (2×) and 18 mm and 3 mm and 7 mm and 15 mm and 4 mm
- Schirmer Tear Test Results (OD), individual dogs ([7]; Week 12, 1% solution TID): 16 mm and 0 mm and 13 mm (2×) and 8 mm and 7 mm and 9 mm
- Schirmer Tear Test Results (OS), Mean ([7]; Week 16 (after 4 weeks CsA)): 11.0 mm
- Schirmer Tear Test Results (OS), individual dogs [7, 14]: 17 mm and 18 mm and 3 mm and 5 mm and 16 mm and 7 mm and 19 mm
- Schirmer Tear Test Results (OD), individual dogs [7, 14]: 18 mm and 12 mm (2×) and 8 mm (3×) and 22** mm
- Maximum-Minimum Analysis, maximal change in STT, OD, per dog [7, 15]: 3 mm and 8 mm (3×) and −4 mm and 5 mm
- Maximum-Minimum Analysis, maximal change in STT, OS, per dog [7, 15]: 7 mm (2×) and 11 mm and 3 mm and 10 mm and 6 mm
- Histopathological evaluation of conjunctival biopsies before and after treatment ([7]; pretreatment vs Week 12): attenuation of lymphocyte accumulation
- Schirmer test scores over pretreatment ([7]; week 12): Significant improvement
- pEC50 ([8]; read-out: EC50 Cytokine Release GM-CSF): 6.26
- pEC50 ([8]; read-out: EC50 Cytokine Release IFNγ): 8.80
- pEC50 ([8]; read-out: EC50 Cytokine Release IL-1α): 6.62
- pEC50 ([8]; read-out: EC50 Cytokine Release IL-1β): 6.44
- pEC50 ([8]; read-out: EC50 Cytokine Release IL-2): 8.74
- pEC50 ([8]; read-out: EC50 Cytokine Release IL-3): 4.28
- pEC50 ([8]; read-out: EC50 Cytokine Release IL-4): 6.84
- pEC50 ([8]; read-out: EC50 Cytokine Release IL-5): 6.96
- pEC50 ([8]; read-out: EC50 Cytokine Release IL-6): 4.36
- pEC50 ([8]; read-out: EC50 Cytokine Release IL-10): 6.83
- pEC50 ([8]; read-out: EC50 Cytokine Release IL-12p40): < 3.00
- pEC50 ([8]; read-out: EC50 Cytokine Release IL-13): 6.44
- pEC50 ([8]; read-out: EC50 Cytokine Release IP-10): 5.94
- pEC50 ([8]; read-out: EC50 Cytokine Release MCP-1): 8.30
- pEC50 ([8]; read-out: EC50 Cytokine Release MIP-1α): 7.70
- pEC50 ([8]; read-out: EC50 Cytokine Release TNF-α): 7.12
- pIC50 ([8]; read-out: IC50 values in in vitro cell assays (cell attachment and SEB IL-2 release)): 8.70
- NOAEL (rabbits [9]): 3.5 mg/eye/3× per day
- NOAEL at 4 week (in vivo): 10 mg/kg
- AUC [10, 16]: 148 ng·h/mL
- AUC [10, 17]: 241 ng·h/mL
- Cmax [10, 16]: 305 ng/mL
- Cmax [10, 17]: 378 ng/mL
- AUC [10, 18]: 536 ng·h/mL
- AUC [10, 19]: 907 ng·h/mL
- Cmax [10, 18]: 1050 ng/mL
- Cmax [10, 19]: 1690 ng/mL
- AUC [10, 20]: 2350 ng·h/mL
- AUC [10, 21]: 7470 ng·h/mL
- Cmax [10, 20]: 5120 ng/mL
- Cmax [10, 21]: 16900 ng/mL

Reference: US20090258069A1, “Delivery of LFA-1 antagonists to the gastrointestinal system” (priority 2008, published 2009)
